Where a name gives a salt, the structure may show the parent alone.
Columns and labels:
[1] = molecular target: human dopamine D3 receptor (Homo sapiens (Human), UniProt P35462); test: Human D2-like receptor competition binding in HEK cells, D3; settings: for Ki: HEK cells, hD3, read-out: D3 Ki; for D2/D3: ratio of Ki at D2 over Ki at D3
Text: (§1) Human dopamine D2-long (D2) and D3 (D3) receptors were expressed in HEK cells. In brief, stably transfected HEK cells expressing the human D2-long and the D3 dopamine receptor were developed using the pIRES bicistronic expression vector (CLONTECH; Palo Alto, Calif.). […] For comparison, human dopamine D4 (D4) receptors were obtained from HEK 293 cells stably transfected with a PCR product of a human cDNA coding for the D4.4 form of the human D4 dopamine receptor.
(§2) The procedures to determine the binding affinities at the human dopamine D2-like receptors, the binding affinities at the serotonin 5HT1A, 5HT2A and 5HT2c receptors and functional mitogenesis assay are known in the art. […] Both of these references are incorporated by reference.

[2] = molecular target: human dopamine D2-long (D2) receptor (Homo sapiens (Human), UniProt P14416); test: Human D2-like receptor competition binding in HEK cells, D2; settings: hD2L
Chain of human dopamine D2-long (D2) receptor (P14416 whole entry): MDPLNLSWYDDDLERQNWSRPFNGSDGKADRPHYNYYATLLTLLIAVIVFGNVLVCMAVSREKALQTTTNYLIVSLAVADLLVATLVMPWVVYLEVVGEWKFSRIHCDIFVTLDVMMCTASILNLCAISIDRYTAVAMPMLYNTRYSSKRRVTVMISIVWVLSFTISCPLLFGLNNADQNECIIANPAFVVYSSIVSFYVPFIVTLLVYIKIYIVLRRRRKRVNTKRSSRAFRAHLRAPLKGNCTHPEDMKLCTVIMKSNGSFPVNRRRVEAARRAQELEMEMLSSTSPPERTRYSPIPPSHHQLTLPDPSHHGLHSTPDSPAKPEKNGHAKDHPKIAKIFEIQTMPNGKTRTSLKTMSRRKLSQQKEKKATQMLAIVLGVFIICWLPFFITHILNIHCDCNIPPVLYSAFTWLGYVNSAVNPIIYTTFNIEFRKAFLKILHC
Text: as §1, §2

[3] = molecular target: human D4.4 dopamine receptor (Homo sapiens (Human), UniProt P21917); test: Human D2-like receptor competition binding in HEK cells, D4; settings: for Ki: HEK 293 cells, hD4.4; for D4/D3 Ki ratio: head printed D4/D2, values correspond to D4 Ki over D3 Ki
Chain of human D4.4 dopamine receptor (P21917 whole entry): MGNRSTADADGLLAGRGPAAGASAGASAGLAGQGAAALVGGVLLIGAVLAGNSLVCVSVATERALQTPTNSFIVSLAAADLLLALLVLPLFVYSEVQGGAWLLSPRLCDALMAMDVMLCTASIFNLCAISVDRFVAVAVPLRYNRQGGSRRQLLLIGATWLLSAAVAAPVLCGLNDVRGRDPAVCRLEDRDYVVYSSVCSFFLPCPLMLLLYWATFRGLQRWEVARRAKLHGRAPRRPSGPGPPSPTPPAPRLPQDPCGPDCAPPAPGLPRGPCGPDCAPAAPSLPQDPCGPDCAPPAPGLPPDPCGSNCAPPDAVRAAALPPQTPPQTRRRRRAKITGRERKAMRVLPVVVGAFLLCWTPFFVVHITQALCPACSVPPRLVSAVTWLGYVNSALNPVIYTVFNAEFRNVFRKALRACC
Text: as §1, §2

Chain of human dopamine D3 receptor (P35462 whole entry): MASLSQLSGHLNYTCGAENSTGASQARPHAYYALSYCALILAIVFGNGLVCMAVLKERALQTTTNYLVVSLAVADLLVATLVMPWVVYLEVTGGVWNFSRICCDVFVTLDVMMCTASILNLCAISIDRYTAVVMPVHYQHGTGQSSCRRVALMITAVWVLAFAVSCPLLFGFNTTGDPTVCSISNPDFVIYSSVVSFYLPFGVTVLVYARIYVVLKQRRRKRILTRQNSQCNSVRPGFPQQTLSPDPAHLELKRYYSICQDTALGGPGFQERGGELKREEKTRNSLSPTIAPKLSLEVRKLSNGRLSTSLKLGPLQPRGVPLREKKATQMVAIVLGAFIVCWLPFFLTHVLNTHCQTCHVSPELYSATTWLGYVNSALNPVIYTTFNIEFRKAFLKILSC

Compound	Ki [1]	D2/D3 [1]	Ki [2]	Ki [3]	D4/D3 Ki ratio [3]	melting point
COc1ccccc1N1CCN(CCC(O)CNC(=O)c2ccc3c(c2)Cc2ccccc2-3)CC1 (centres unmarked) [Compound 23, N-(4-(4-(2-Methoxyphenyl)piperazin-1-yl)-2-hydroxybutyl)-9H-fluorene-2-carboxamide]	1.3 nM	53	68.4 nM	–	–	–
COc1ccccc1N1CCN(CC(O)CCNC(=O)c2cc3ccccc3[nH]2)CC1 (centres unmarked) [Compound 35]	1.37 nM	181	249 nM	1920 nM	1401	–
COc1ccccc1N1CCN(CC(O)CCNC(=O)c2ccc3c(c2)Cc2ccccc2-3)CC1 (centres unmarked) [Compound 19, N-(3-Hydroxy-4-(4-(2-methoxyphenyl)piperazin-1-yl)-butyl)-9H-fluorene-2-carboxamide]	1.8 nM	138	249 nM	1230 nM	683	–
O=C(NC/C=C/C[N+]1([O-])CCN(c2cccc(Cl)c2Cl)CC1)c1ccc(-c2ccccn2)cc1 [Compound 13, 4-(2,3-Dichlorophenyl)-1-(4-(4-(pyridin-2-yl)benzamido)-trans-but-2-enyl)-piperazine 1-oxide]	49.2 nM	24	1160 nM	–	–	–
COc1ccccc1N1CCN(CCCCNC(=O)c2ccc3c(c2)Cc2ccccc2-3)CC1 (as salt: hydrochloride) [Compound 7, N-(4-(4-(2-Methoxyphenyl)piperazin-1-yl)butyl)-9H-fluorene-2-carboxamide]	–	–	–	–	–	208 to 210 °C
O=C(NCCC(O)CN1CCN(c2cccc(Cl)c2Cl)CC1)c1ccc2c(c1)Cc1ccccc1-2 (centres unmarked) (as salt: oxalate) [Compound 17]	–	–	–	–	–	188 to 190 °C
Cc1cccc(-c2ccc(C(=O)NC/C=C/CN3CCN(c4cccc(Cl)c4Cl)CC3)cc2)n1 (as salt: oxalate) [Compound 10, N-(4-(4-(2,3-Dichloro-phenyl)-piperazin-1-yl)-trans-but-2-enyl)-4-(6-methyl-pyridin-2-yl)-benzamide]	–	–	–	–	–	125 to 126 °C
COc1ccccc1N1CCN(C/C=C/CNC(=O)c2ccc3c(c2)Cc2ccccc2-3)CC1 (as salt: hydrochloride) [Compound 15, N-(4-(4-(2-methoxyphenyl)piperazin-1-yl)-trans-but-2-enyl)-9H-fluorene-2-carboxamide]	–	–	–	–	–	224 to 226 °C
O=C(NC/C=C/CN1CCN(c2cccc(Cl)c2Cl)CC1)c1ccc(-c2cccc(=O)[nH]2)cc1 (as salt: oxalate) [Compound 9, N-(4-(4-(2,3-Dichloro-phenyl)-piperazin-1-yl)-trans-but-2-enyl)-4-(6-oxo-1,6-dihydro-pyridin-2-yl)-benzamide]	–	–	–	–	–	153 to 154 °C
COc1ccccc1N1CCN(C/C=C/CNC(=O)c2ccc(-c3ccccn3)cc2)CC1 (as salt: hydrochloride) [Compound 14, N-(4-(4-(2-Methoxy-phenyl)-piperazin-1-yl)-trans-but-2-enyl)-4-pyridin-2-yl-benzamide]	–	–	–	–	–	168 to 170 °C
O=C(NCC(O)CCN1CCN(c2cccc(Cl)c2Cl)CC1)c1cc2ccccc2[nH]1 (centres unmarked) [Compound 36]	0.26 nM	109	28.4 nM	–	–	–
O=C(NC/C=C/CN1CCN(c2cccc(Cl)c2Cl)CC1)c1ccc(-c2cccc[n+]2[O-])cc1 (as salt: oxalate) [Compound 12, N-(4-(4-(2,3-Dichloro-phenyl)-piperazin-1-yl)-trans-but-2-enyl)-4-(pyridin-N-oxide-2-yl)-benzamide]	–	–	–	–	–	153 to 154 °C
O=C(NCC(O)CCN1CCN(c2cccc(Cl)c2Cl)CC1)c1ccc2c(c1)Cc1ccccc1-2 (centres unmarked) [Compound 22, N-(4-(4-(2,3-Dichlorophenyl)piperazin-1-yl)-2-hydroxybutyl)-9H-fluorene-2-carboxamide]	2.5 nM	34	84 nM	–	–	–

More lines, main results first:

Ki [1]	D2/D3 [1]	Ki [2]	Ki [3]	D4/D3 Ki ratio [3]	Compound	melting point
3.5 nM	200	697 nM	–	–	O=C(NCCC(O)CN1CCN(c2cccc(Cl)c2Cl)CC1)c1cc2cc(I)ccc2o1 (centres unmarked) [Compound 45]	–
4.6 nM	73	337 nM	–	–	COc1ccccc1N1CCN(CC(O)CCNC(=O)c2cc3ccccc3s2)CC1 (centres unmarked) [Compound 39]	–
62.1 nM	1	47.1 nM	–	–	CCCOc1ccccc1N1CCN(CC(O)CCNC(=O)c2cc3ccccc3[nH]2)CC1 (centres unmarked) [Compound 38]	–
0.5 nM	105	52.5 nM	–	–	COc1ccccc1N1CCN(CCC(O)CNC(=O)c2cc3ccccc3[nH]2)CC1 (centres unmarked) [Compound 37]	–
0.65 nM	276	180 nM	–	–	COc1ccccc1N1CCN(CC(O)CCNC(=O)c2cc3cc(F)ccc3o2)CC1 (centres unmarked) [Compound 47]	–
2.2 nM	71	158 nM	–	–	COc1ccccc1N1CCN(CC(O)CCNC(=O)c2cc3cc(I)ccc3o2)CC1 (centres unmarked) [Compound 44]	–
0.98 nM	188	185 nM	–	–	O=C(NCCC(O)CN1CCN(c2cccc(Cl)c2Cl)CC1)c1cc2ccccc2o1 (centres unmarked) [Compound 42]	–
1.6 nM	149	245 nM	–	–	O=C(NCCC(O)CN1CCN(c2cccc(Cl)c2Cl)CC1)c1cc2cc(F)ccc2o1 (centres unmarked) [Compound 46]	–
5.4 nM	43	233 nM	–	–	COc1ccccc1N1CCN(CC(O)CCNC(=O)c2cc3ccccc3o2)CC1 (centres unmarked) [Compound 43]	–
1.3 nM	185	244 nM	–	–	COc1ccc2oc(C(=O)NCCC(O)CN3CCN(c4cccc(Cl)c4Cl)CC3)cc2c1 (centres unmarked) [Compound 48]	–
1 nM	172	174 nM	–	–	COc1ccc2oc(C(=O)NCCC(O)CN3CCN(c4ccccc4OC)CC3)cc2c1 (centres unmarked) [Compound 49]	–

Reference: patent US8748608B2, “4-phenylpiperazine derivatives with functionalized linkers as dopamine D3 receptor selective ligands and methods of use” (The United States of America as Represented by the …, priority 2007, dated 2014)
